The supplement of paper PMC11368000

How the values were obtained:
Settings in all cases: exposure time: 90 min
[1] = tested on: 30171 (donor line of iPSC-derived cardiomyocytes); assay: POD (EC05) for decrease in beat frequency (negative chronotrope) vs vehicle; higher = less potent (higher point of departure)
Procedure: (§1)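 Human iPSC-derived cardiomyocytes from 16 donors were exposed for 90 min at 37 °C to each PFAS at 0.1, 1, 10 and 100 µM in 0.5% DMSO, 384-well plates. Kinetic Ca2+ flux (FLIPR) and Hoechst nuclei counts were normalised to vehicle wells and fitted with a hierarchical Bayesian Hill model to give donor-specific PODs: EC05 for beat-rate increase or decrease and for decay-to-rise ratio increase (QT proxy), EC95 for peak-frequency loss (asystole), EC10 for total cell number loss. 0.03 µM is the lower bound.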

[2] = tested on: 1309 (donor line of iPSC-derived cardiomyocytes); assay: as above
Procedure: as §1

[3] = tested on: 1118 (donor line of iPSC-derived cardiomyocytes); assay: as above
Procedure: as §1

[4] = tested on: 1434 (donor line of iPSC-derived cardiomyocytes); assay: as above
Procedure: as §1

[5] = tested on: 20032 (donor line of iPSC-derived cardiomyocytes); assay: as above
Procedure: as §1

[6] = tested on: 1368 (donor line of iPSC-derived cardiomyocytes); assay: as above
Procedure: as §1

[7] = tested on: 1531 (donor line of iPSC-derived cardiomyocytes); assay: as above
Procedure: as §1

[8] = tested on: 20084 (donor line of iPSC-derived cardiomyocytes); assay: as above
Procedure: as §1

[9] = tested on: 1518 (donor line of iPSC-derived cardiomyocytes); assay: as above
Procedure: as §1

[10] = tested on: 11235 (donor line of iPSC-derived cardiomyocytes); assay: as above
Procedure: as §1

[11] = tested on: 1392 (donor line of iPSC-derived cardiomyocytes); assay: as above
Procedure: as §1

[12] = tested on: 1535 (donor line of iPSC-derived cardiomyocytes); assay: as above
Procedure: as §1

[13] = tested on: 1516 (donor line of iPSC-derived cardiomyocytes); assay: as above
Procedure: as §1

[14] = tested on: 1083 (donor line of iPSC-derived cardiomyocytes); assay: as above
Procedure: as §1

[15] = tested on: 30145 (donor line of iPSC-derived cardiomyocytes); assay: as above
Procedure: as §1

[16] = tested on: 1565 (donor line of iPSC-derived cardiomyocytes); assay: as above
Procedure: as §1

[17] = tested on: 30145; assay: POD (EC05) for increase in beat frequency (positive chronotrope) vs vehicle; higher = less potent (higher point of departure)
Method in brief: (§2)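 Cardiomyocytes derived from human iPSCs of 16 donors were grown 14 days in gelatin-coated 384-well plates, loaded 2 h with a fluorescent Ca2+ dye, then exposed for 90 min at 37 °C to final concentrations of 0.1, 1, 10 and 100 µM in 0.5% DMSO. A FLIPR Tetra recorded Ca2+ flux at 8 frames/s for 100 s before and after exposure. Points of departure for each donor were derived by hierarchical Bayesian Hill fitting of vehicle-normalised beat frequency, decay-to-rise ratio or peak frequency. The thresholds applied were a 5% change, or a 95% loss for peak frequency.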

[18] = tested on: 1518; assay: POD (EC05) for increase in Ca2+ transient decay-to-rise ratio (QT prolongation) vs vehicle; higher = less potent (higher point of departure)
Method in brief: as §2

[19] = tested on: 1516; assay: as above
Method in brief: as §2

[20] = tested on: 1531; assay: as above
Method in brief: as §2

Row | Structure (SMILES) | POD vs vehicle [1] | POD vs vehicle [2] | POD vs vehicle [3] | POD vs vehicle [4] | POD vs vehicle [5] | POD vs vehicle [6] | POD vs vehicle [7] | POD vs vehicle [8] | POD vs vehicle [9] | POD vs vehicle [10] | POD vs vehicle [11] | POD vs vehicle [12] | POD vs vehicle [13] | POD vs vehicle [14] | POD vs vehicle [15] | POD vs vehicle [16] | POD vs vehicle [17] | POD vs vehicle [18] | POD vs vehicle [19] | POD vs vehicle [20]
1 | NC(=O)C(F)(F)C(F)(F)C(F)(F)F [Heptafluorobutyramide] | > 100 µM | > 100 µM | > 100 µM | > 100 µM | > 100 µM | > 100 µM | > 100 µM | > 100 µM | > 100 µM | > 100 µM | > 100 µM | > 100 µM | > 100 µM | > 100 µM | > 100 µM | > 100 µM |  |  |  | 
2 | OCC(F)(F)C(F)(F)C(F)(F)C(F)F [1H,1H,5H-Perfluoropentanol] | > 100 µM | > 100 µM | 22.8 µM | > 100 µM | > 100 µM | > 100 µM | 45.9 µM | 35.1 µM | > 100 µM | > 100 µM | > 100 µM | > 100 µM | > 100 µM | > 100 µM | > 100 µM | > 100 µM | > 100 µM | 2.03 µM | 4.56 µM | 
3 | O=C([O-])C(F)(F)C(F)(F)C(F)(F)C(F)(F)C(F)(F)C(F)(F)C(F)(F)F.[NH4+] [Ammonium_perfluorooctanoate] | 7.16 µM | > 100 µM | 11 µM | 46.1 µM | 79.9 µM | > 100 µM | 18.9 µM | > 100 µM | 87.3 µM | 4.51 µM | > 100 µM | 43.5 µM | 58.4 µM | > 100 µM | > 100 µM | > 100 µM |  |  | > 100 µM | 
4 | O=C(O)C(F)(F)OC(F)(F)C(F)(F)OC(F)(F)C(F)(F)OC(F)(F)C(F)(F)C(F)(F)C(F)(F)F [Perfluoro-3,6,9-trioxatridecanoic_acid] | 20.7 µM | > 100 µM | 18.3 µM | 22.8 µM | 42 µM | > 100 µM | 3.38 µM | 77.9 µM | > 100 µM | 23.1 µM | > 100 µM | 79.4 µM | 22.2 µM | 21.8 µM | > 100 µM | > 100 µM | > 100 µM | > 100 µM |  | 
5 | O=C(O)C(F)(F)C(F)(F)C(F)(F)C(F)(F)C(F)(F)C(F)(F)F [Perfluoroheptanoic_acid] | > 100 µM | > 100 µM | 39.8 µM | > 100 µM | > 100 µM | > 100 µM | 78.7 µM | > 100 µM | > 100 µM | 20.6 µM | > 100 µM | > 100 µM | 68.1 µM | > 100 µM | > 100 µM | > 100 µM | > 100 µM |  |  | 
6 | O=C(CC(=O)C(F)(F)C(F)(F)F)C(F)(F)F [3H,3H-Perfluoro-2,4-hexanedione] | 23.5 µM | > 100 µM | 24.6 µM | 22.6 µM | > 100 µM | > 100 µM | > 100 µM | > 100 µM | > 100 µM | 24.9 µM | > 100 µM | > 100 µM | 45.3 µM | > 100 µM | > 100 µM | > 100 µM | > 100 µM | > 100 µM | > 100 µM | 
7 | NC(=O)C(F)(F)C(F)(F)C(F)(F)C(F)(F)C(F)(F)C(F)(F)C(F)(F)F [Perfluorooctanamide] | > 100 µM | > 100 µM | > 100 µM | > 100 µM | > 100 µM | > 100 µM | > 100 µM | > 100 µM | > 100 µM | > 100 µM | > 100 µM | > 100 µM | > 100 µM | > 100 µM | > 100 µM | > 100 µM | > 100 µM |  | > 100 µM | 
8 | NC(=O)C(F)(F)C(F)(F)C(F)(F)C(F)(F)F [Nonafluoropentanamide] | > 100 µM | > 100 µM | 17.3 µM | > 100 µM | > 100 µM | > 100 µM | > 100 µM | > 100 µM | > 100 µM | > 100 µM | > 100 µM | > 100 µM | > 100 µM | > 100 µM | > 100 µM | > 100 µM | > 100 µM | 0.612 µM | > 100 µM | 
9 | OCC(F)(F)OC(F)(F)C(F)(F)OC(F)(F)C(F)(F)OC(F)(F)F [Fluorinated_triethylene_glycol_monomethyl_ether] | > 100 µM | > 100 µM | 2.52 µM | 25.3 µM | > 100 µM | > 100 µM | > 100 µM | > 100 µM | > 100 µM | > 100 µM | > 100 µM | > 100 µM | > 100 µM | > 100 µM | > 100 µM | > 100 µM |  | > 100 µM | > 100 µM | 
10 | O=S(=O)(OCC(F)(F)F)C(F)(F)C(F)(F)C(F)(F)C(F)(F)F [2,2,2-Trifluoroethyl_perfluorobutanesulfonate] | 49.1 µM | > 100 µM | > 100 µM | > 100 µM | > 100 µM | > 100 µM | > 100 µM | > 100 µM | > 100 µM | > 100 µM | > 100 µM | > 100 µM | > 100 µM | > 100 µM | > 100 µM | > 100 µM | > 100 µM |  |  | 
11 | NC(O)(C(F)(F)F)C(F)(F)F [2-Aminohexafluoropropan-2-ol] | 36.5 µM | > 100 µM | 16.9 µM | 85.7 µM | 80.9 µM | > 100 µM | > 100 µM | > 100 µM | > 100 µM | 7.51 µM | > 100 µM | 83.8 µM | 22.6 µM | > 100 µM | > 100 µM | > 100 µM |  |  |  | > 100 µM
